Reference: ChEMBL document CHEMBL1201862, “PubChem BioAssay data set” (2004)
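48-hour exposure; five concentrations; linearly interpolated endpoints. The concentration for 50% growth inhibition is given as GI50.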 Calls of active or inactive are those of the source. Cut-off read from the data, not from the text of the source: active = GI50 up to about 1.1 µM and inactive = higher.

Legend:
Assay in all cases: inhibition of tumour cell growth, NCI panel, 48 h
[1] = test system: TK-10
[2] = test system: XF498
[3] = test system: Hs-578T
[4] = test system: OVCAR-3
[5] = test system: SK-OV-3
[6] = test system: SF-295
[7] = test system: CAKI-1
[8] = test system: HOP-92
[9] = test system: UACC-62
[10] = test system: HCT-116
[11] = test system: IGROV-1
[12] = test system: RPMI-8226
[13] = test system: SW-620
[14] = test system: DLD-1
[15] = test system: MDA-MB-231
[16] = test system: SNB-75
[17] = test system: NCI-H460
[18] = test system: EKVX
[19] = test system: SNB-78
[20] = test system: CCRF-CEM

Measured: GI50

O=C1CCC(c2ccccc2)=NN1c1nc2ccccc2s1
inactive: [1] 35.8 µM | [2] 31.9 µM | [3] 36 µM | [4] 17.9 µM | [5] 25.2 µM | [6] 25.7 µM | [7] 32.4 µM | [8] 26.7 µM | [9] 30.3 µM | [10] 29.5 µM | [11] 34.9 µM | [12] 27 µM | [13] 37.4 µM | [14] 34.1 µM | [15] 20.9 µM | [16] 22.3 µM | [17] 27.7 µM | [18] 30.8 µM | [19] 41.2 µM | [20] 23.1 µM
